Laboratory results reported in PubChem BioAssay (NCI).
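Here, GI50 denotes the concentration required for 50% inhibition of growth. The concentration for full growth arrest is given as TGI.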

How the values were obtained:
Assay in all cases: inhibition of tumour cell growth, NCI panel, 384-well format
HL-60(TB) leukemia = system: HL-60(TB) leukemia
RXF 393 renal = system: RXF 393 renal
OVCAR-3 ovarian = system: OVCAR-3 ovarian
EKVX NSCLC = system: EKVX NSCLC
NCI-H522 lung = system: NCI-H522 lung
DU-145 prostate = system: DU-145 prostate
SNB-75 CNS = system: SNB-75 CNS
SK-MEL-2 melanoma = system: SK-MEL-2 melanoma
PC-3 prostate = system: PC-3 prostate
HS 578T breast = system: HS 578T breast
HOP-62 NSCLC = system: HOP-62 NSCLC
ACHN renal = system: ACHN renal
UACC-62 melanoma = system: UACC-62 melanoma
OVCAR-4 ovarian = system: OVCAR-4 ovarian
NCI-H226 lung = system: NCI-H226 lung
MDA-MB-231 breast = system: MDA-MB-231 breast
UACC-257 melanoma = system: UACC-257 melanoma
TK-10 renal = system: TK-10 renal
SF-268 CNS = system: SF-268 CNS
K-562 leukemia = system: K-562 leukemia
SR leukemia = system: SR leukemia
NCI-H322M lung = system: NCI-H322M lung
SNB-19 CNS = system: SNB-19 CNS
COLO 205 colon = system: COLO 205 colon
SK-OV-3 ovarian = system: SK-OV-3 ovarian
MCF7 breast = system: MCF7 breast
HT29 colon = system: HT29 colon
MALME-3M melanoma = system: MALME-3M melanoma
T-47D breast = system: T-47D breast
M14 melanoma = system: M14 melanoma
MDA-MB-435 melanoma = system: MDA-MB-435 melanoma
HOP-92 NSCLC = system: HOP-92 NSCLC
NCI-H460 NSCLC = system: NCI-H460 NSCLC
HCT-116 colon = system: HCT-116 colon
SK-MEL-5 melanoma = system: SK-MEL-5 melanoma
SW-620 colon = system: SW-620 colon
UO-31 renal = system: UO-31 renal
OVCAR-5 ovarian = system: OVCAR-5 ovarian
BT-549 breast = system: BT-549 breast
786-0 renal = system: 786-0 renal
IGROV1 ovarian = system: IGROV1 ovarian
A549 NSCLC = system: A549 NSCLC
SK-MEL-28 melanoma = system: SK-MEL-28 melanoma
OVCAR-8 ovarian = system: OVCAR-8 ovarian
SF-539 CNS = system: SF-539 CNS
CAKI-1 renal = system: CAKI-1 renal
KM12 colon = system: KM12 colon
MDA-MB-468 breast = system: MDA-MB-468 breast
A498 renal = system: A498 renal
SN12C renal = system: SN12C renal
SF-295 CNS = system: SF-295 CNS
U251 glioblastoma = system: U251 glioblastoma
NCI-H23 lung = system: NCI-H23 lung
MOLT-4 leukemia = system: MOLT-4 leukemia
HCT-15 colon = system: HCT-15 colon

## CC(C)[C@H]1C(=O)N[C@@H](CCCN=C(N)N)C(=O)NCC(=O)N[C@@H](CC(=O)O)C(=O)N[C@H](Cc2ccccc2)C(=O)N1C
HL-60(TB) leukemia
  GI50: 42.7 µM
  TGI: > 100 µM
RXF 393 renal
  GI50: 0.194 µM
  TGI: 0.858 µM
OVCAR-3 ovarian
  GI50: 53.9 µM
  TGI: > 100 µM
EKVX NSCLC
  GI50: 2.3 µM
  TGI: 9.86 µM
NCI-H522 lung
  GI50: 3.98 µM
  TGI: > 100 µM
DU-145 prostate
  GI50: 8.01 µM
  TGI: > 100 µM
SNB-75 CNS
  GI50: 0.226 µM
  TGI: 0.871 µM
SK-MEL-2 melanoma
  GI50: > 100 µM
  TGI: > 100 µM
PC-3 prostate
  GI50: > 100 µM
  TGI: > 100 µM
HS 578T breast
  GI50: 3.76 µM
  TGI: > 100 µM
HOP-62 NSCLC
  GI50: 4.51 µM
  TGI: > 100 µM
ACHN renal
  GI50: 4.33 µM
  TGI: > 100 µM
UACC-62 melanoma
  GI50: 70.8 µM
  TGI: > 100 µM
OVCAR-4 ovarian
  GI50: 7.1 µM
  TGI: > 100 µM
NCI-H226 lung
  GI50: 5.9 µM
  TGI: > 100 µM
MDA-MB-231 breast
  GI50: 35.5 µM
  TGI: > 100 µM
UACC-257 melanoma
  GI50: > 100 µM
  TGI: > 100 µM
TK-10 renal
  GI50: 2 µM
  TGI: > 100 µM
SF-268 CNS
  GI50: 3.29 µM
  TGI: > 100 µM
K-562 leukemia
  GI50: 37.7 µM
  TGI: > 100 µM
SR leukemia
  GI50: 2.59 µM
  TGI: 12.2 µM
NCI-H322M lung
  GI50: > 100 µM
  TGI: > 100 µM
SNB-19 CNS
  GI50: 15.7 µM
  TGI: > 100 µM
COLO 205 colon
  GI50: > 100 µM
  TGI: > 100 µM
SK-OV-3 ovarian
  GI50: 41.8 µM
  TGI: > 100 µM
MCF7 breast
  GI50: 13.9 µM
  TGI: > 100 µM
HT29 colon
  GI50: 53.1 µM
  TGI: > 100 µM
MALME-3M melanoma
  GI50: > 100 µM
  TGI: > 100 µM
T-47D breast
  GI50: 38.3 µM
  TGI: > 100 µM
M14 melanoma
  GI50: > 100 µM
  TGI: > 100 µM
MDA-MB-435 melanoma
  GI50: > 100 µM
  TGI: > 100 µM
HOP-92 NSCLC
  GI50: 6.51 µM
  TGI: > 100 µM
NCI-H460 NSCLC
  GI50: 58.3 µM
  TGI: > 100 µM
HCT-116 colon
  GI50: 26.7 µM
  TGI: > 100 µM
SK-MEL-5 melanoma
  GI50: > 100 µM
  TGI: > 100 µM
SW-620 colon
  GI50: 37.8 µM
  TGI: > 100 µM
UO-31 renal
  GI50: 5.4 µM
  TGI: 99.4 µM
OVCAR-5 ovarian
  GI50: 74.5 µM
  TGI: > 100 µM
BT-549 breast
  GI50: 2.13 µM
  TGI: > 100 µM
786-0 renal
  GI50: 7.76 µM
  TGI: > 100 µM
IGROV1 ovarian
  GI50: 2.38 µM
  TGI: > 100 µM
A549 NSCLC
  GI50: 39.3 µM
  TGI: > 100 µM
SK-MEL-28 melanoma
  GI50: > 100 µM
  TGI: > 100 µM
OVCAR-8 ovarian
  GI50: 11 µM
  TGI: > 100 µM
SF-539 CNS
  GI50: 27.2 µM
  TGI: > 100 µM
CAKI-1 renal
  GI50: 0.72 µM
  TGI: 14.4 µM
KM12 colon
  GI50: 42.5 µM
  TGI: > 100 µM
MDA-MB-468 breast
  GI50: 59.8 µM
  TGI: > 100 µM
A498 renal
  GI50: 0.765 µM
  TGI: > 100 µM
SN12C renal
  GI50: > 100 µM
  TGI: > 100 µM
SF-295 CNS
  GI50: > 100 µM
  TGI: > 100 µM
U251 glioblastoma
  GI50: 8.88 µM
  TGI: > 100 µM
NCI-H23 lung
  GI50: > 100 µM
  TGI: > 100 µM
MOLT-4 leukemia
  GI50: 5.83 µM
  TGI: 18 µM
HCT-15 colon
  GI50: > 100 µM
  TGI: > 100 µM
